According to patent US20150087037A1, “FERMENTATION PROCESS” (LanzaTech New Zealand Limited, priority 2013, published 2015):

Experiments:
[1] = system: C. autoethanogenum DSM23693; experiment: Fermentation started in the presence of 2-HIBA, impact on growth (Example 5); type: cell-based, Clostridium autoethanogenum
Description: (§1) Fermentations with C. autoethanogenum DSM23693 were carried out in 1.5 L bioreactors at 37° C. The media was prepared according to Table 1. To achieve anaerobicity the reactor vessel was sparged with nitrogen. Prior to inoculation, the gas was switched to either steel mill gas containing H2 (3%), N2 (30%), CO (47%) and CO2 (20%) or pure gases (50% CO, 18-40% CO2, with the balance N2). The gas flow was initially set at 67 ml/min/L, increasing to 200 ml/min during mid-exponential phase, while the agitation was increased from 200 rpm to 800. Na2S was dosed into the bioreactor at 0.25 ml/hr. Once the OD600 reached 1.5, the bioreactor was switched to a continuous mode at a dilution rate of 2.0-1.6 d-l and a bacterial dilution rate of 0.9-0.6 d-l. During continuous mode gas and agitation were adjusted to 900-950 rpm and 800-900 ml/min. Na2S was increased to 1.0 ml/hr.
(§2) Liquid culture samples were taken at differing intervals over the duration of the fermentation. These samples were used to establish the optical density at 600 nm (spectrophotometer) and the level of substrates and products (high performance liquid chromatography—HPLC). HPLC was routinely used to quantify the level of acetate, ethanol and 2,3-butanediol. The input and output gas compositions were analysed using a gas chromatographer (GC), allowing measurement of CO and H2 consumption and CO2 production by the culture.
To see if the 2-HIBA impacts negatively on growth a fermentation was started in the presence of 0.05 g/L (0.48 mM) 2-HIBA. During growth gas and agitation were increased so that by day 5.0 the agitation had reached a maximum of 950 rpm and the gas flow 800 ml/min. At this time the dilution rate was 1.8 day^−1 and the bacterial dilution rate 0.85 day^−1.

[2] = system: Clostridium autoethanogenum; experiment: Fermentation of gaseous substrate comprising CO with 2-HIBA: general findings and carbon balance; type: cell-based
Description: Accordingly, the inventors are the first to devise a process for producing high concentrations of 2,3-butanediol through the microbial fermentation of a gaseous substrate comprising CO. In a first stage, a gaseous substrate comprising CO is fed to a bioreactor containing a culture of one or more microorganisms suspending in liquid nutrient media. The gaseous substrate is anaerobically fermented to produce one or more alcohols and/or one or more acids or mixtures thereof. Compounds are provided to the fermentation to alter the metabolite profile of the fermentation.
Carbon balance measurements were performed to confirm the shift to increased 2,3-butanediol production after addition of 2-HIBA.
As the 2-HIBA is not consumed by the fermentation, it is possible to recover 2-HIBA exiting the bioreactor and pass it back to the bioreactor to improve the efficiency of the fermentation.

[3] = system: LZ1561; experiment: Differential gene expression analysis before and after 2-HIBA addition (Example 6); type: cell-based, Clostridium autoethanogenum
Description: In order to understand the impact of 2-HIBA on the metabolism of LZ1561 samples were taken for gene expression analysis. A reactor was started up as a batch and after 1 day was turned continuous at a D=1.4 day^−1. Gas flow and agitation were adjusted in order to minimise acetate and maximise ethanol and 2,3-BDO production. By day 7 the Ethanol:2,3-BDO ratio was less than 5:1 and the gas had reached target CO uptake of between 5-6 mol/L/day. On day 9.6 a sample was taken for gene expression analysis representing stable data without 2-HIBA. […] The results for this analysis indicated very clearly that 2-HIBA interacts with the Branch Chain Amino Acid biosynthesis pathway (BCAA). From the results a mode of action of 2-HIBA was proposed and this is illustrated and described in FIG. 11.

[4] = system: C. autoethanogenum DSM23693; experiment: Linked two reactor (R1, R2) fermentation system, continuous 2-HIBA addition (Examples 2 and 3); type: cell-based, Clostridium autoethanogenum
Description: as §1, §2
A two reactor system was used to examine the impact of continuous 2-HIBA addition on the metabolite profile. Initially 0.5 g/L/day (4.8 mM/day) 2-HIBA was added to the R2 only, this increased the production of 2,3-BDO but the ratio only dropped to as low as 1.9:1. Continuous addition of 2-HIBA at 0.5 g/L/day (4.8 mM/day) was then added to the R1. […] This would be achieved by improving the concentration in both the R1 and the R2 as the 2-HIBA is transferred from the R1 to the R2 (through liquid flow) along with improved 2,3-BDO concentrations. The 2,3-BDO concentration increased from 5.7 g/L to 14 g/L in the R1 and from 16 g/L to 21 g/L in the R2 (see FIGS. 3 and 4). The ratio of ethanol:2,3-BDO dropped to 1:1 in the R1 and 1.3:1 in the R2 and remained stable for a period of eight days. The improvement of the ratio was achieved as a result of increased 2,3-BDO concentration and a drop in ethanol production.
Over time the ethanol concentration after the 2-HIBA addition improved whilst the concentration of 2,3-BDO remained stable, this had the effect of improving the total alcohol productivity of the system.
The results achieved in Example 2 were repeated with the aim to improve the overall titre of 2,3-BDO. In this experiment the 2-HIBA concentration was increased to 1 g/L/day (9.6 mM/day).

[5] = 0 mM vs 4.8 mM 2-HIBA addition, down-regulated
[6] = 0 mM vs 4.8 mM 2-HIBA addition, up-regulated
[7] = R1, average across eight days, 0.5 g/L/day 2-HIBA
[8] = R1, gas data average across eight days, 0.5 g/L/day 2-HIBA
[9] = R2, average across eight days, 0.5 g/L/day 2-HIBA
[10] = R2, gas data average across eight days, 0.5 g/L/day 2-HIBA

CC(C)(O)C(=O)O [2-HIBA, 2-hydroxyisobutyric acid]
average ethanol concentration ([1]; 0.05 g/L (0.48 mM) 2-HIBA): 17 g/L | impact on the growth of the fermentation ([1]; 0.05 g/L (0.48 mM) 2-HIBA in the media from start): no impact on the growth | 2,3-butanediol concentration ([1]; 0.05 g/L (0.48 mM) 2-HIBA, average): 15.5 g/L | 2,3-BDO concentration ([2]; 2-HIBA at 0.01 g/L-2.0 g/L (0.096 to 19.2 mM)): significantly increases | ethanol:2,3-BDO ratio ([2]; addition of 2-HIBA): significantly improves | carbon balance ([2]; before and after addition of 2-HIBA, FIG. 14): clear increase in 2,3-butanediol production, accompanied by a decrease in production of ethanol, acetate and biomass | overall fermentation stability ([2]; continuous addition, 0.01 g/L/day-2.0 g/L/day (0.096 to 19.2 mM/day)): without affecting overall fermentation stability | log2 fold_change, or1907 Indole-3-glycerol phosphate synthase CDS [3, 5]: −3.042 | log2 fold_change, or2161 Alcohol dehydrogenase CDS [3, 5]: −3.476 | log2 fold_change, or2739 Glutamate synthase (NADPH) CDS [3, 5]: −3.498 | log2 fold_change, or2997 Glycerol dehydrogenase CDS [3, 5]: −4.924 | log2 fold_change, or3075 Glucarate dehydratase CDS [3, 5]: −4.084 | log2 fold_change, or3076 hypothetical protein CDS [3, 5]: −3.469 | log2 fold_change, or3079 Methylglyoxal reductase (NADPH-dependent) CDS [3, 5]: −4.02 | log2 fold_change, or3080 transcriptional regulator, CdaR CDS [3, 5]: −3.947 | log2 fold_change, or1190 2-isopropylmalate synthase CDS [3, 6]: 3.63 | log2 fold_change, or1191 3-isopropylmalate dehydratase large subunit CDS [3, 6]: 3.55 | log2 fold_change, or1193 3-isopropylmalate dehydrogenase CDS [3, 6]: 3.289 | log2 fold_change, or2387 Ketol-acid reductoisomerase CDS [3, 6]: 3.202 | log2 fold_change, or2388 Dihydroxy-acid dehydratase CDS [3, 6]: 2.901 | log2 fold_change, or2389 acetolactate synthase, large subunit, biosynthetic type CDS [3, 6]: 3.255 | log2 fold_change, or2390 acetolactate synthase, small subunit CDS [3, 6]: 3.237 | log2 fold_change, or2461 General substrate transporter CDS [3, 6]: 2.867 | response in metabolites ([3]; 0.5 g/L (4.8 mM) 2-HIBA added on day 10.78): decreasing acetate, ethanol and biomass with increasing 2,3-BDO | Biomass ([3]; Day 12.8-14.0, stable 0.5 g/L HIBA addition, before 4.7): 3.45 g/L | CO uptake ([3]; Day 12.8-14.0, stable 0.5 g/L HIBA addition, before 5.7): 5.1 mol/L/day | impact on CO and hydrogen uptake ([4]; 0.5 g/L/day 2-HIBA, FIGS. 5 and 6): did not negatively impact | 2,3-BDO concentration in R1 ([4]; 0.5 g/L/day (4.8 mM/day) 2-HIBA added to R1, increased from 5.7 g/L): 14 g/L | impact on gas uptake ([4]; 1 g/L/day (9.6 mM/day) 2-HIBA): not negatively impacted | overall 2,3-BDO concentration ([4]; 1 g/L/day (9.6 mM/day) 2-HIBA, highest reached, FIG. 7): 23.9 g/L | Acetate ([4]; R1, average across eight days of stable operation, 0.5 g/L/day 2-HIBA): 6.5 g/L | 2,3 BDO [4, 7]: 13.7 g/L | 2,3 BDO productivity [4, 7]: 27 g/L/day | Biomass [4, 7]: 9.2 g/L | Ethanol [4, 7]: 14.4 g/L | Lactate [4, 7]: 0.0 g/L | CO2 production [4, 8]: 5630 mmol/L | CO uptake [4, 8]: -8830 mmol/L | CO utilisation [4, 8]: 53% | H2 production [4, 8]: 423 mmol/L | 2,3 BDO [4, 9]: 21.3 g/L | 2,3 BDO productivity [4, 9]: 16 g/L/day | Acetate [4, 9]: 7.8 g/L | Biomass [4, 9]: 15.6 g/L | Ethanol [4, 9]: 28.3 g/L | Lactate [4, 9]: 0.0 g/L | CO2 production [4, 10]: 4932 mmol/L | CO uptake [4, 10]: -7930 mmol/L | CO utilisation [4, 10]: 63% | H2 production [4, 10]: 413 mmol/L
